Where two headings read alike, the source gives them in different places.
How the values were obtained:
MV-4-11 cells = test: Anti-proliferative activity against MV-4-11 cells (cell viability chemiluminescence); assay type: cell-based; details: MV-4-11 human monocytic leukemia cells, three days of exposure
Procedure: This study utilized a cell proliferation assay to analyze the cytotoxicity of MV-4-11 human monocytic leukemia cells after three days of exposure to NMT1 inhibitors. The MV-4-11 cell line was purchased from Nanjing Cobuilder Biotechnology Co., Ltd., and cultured in IMDM medium (Viva cell) in an incubator (Thermo) at 37 °C with 5% CO2. In this experiment, NMT1 inhibitors were dissolved in DMSO to obtain 600 µM stock solutions. Dose-response solutions were prepared with a top endpoint compound concentration of 3 µM, followed by three-fold serial dilutions in DMSO, totaling eight data points. The final concentration of DMSO was 0.5%.
MV-4-11 cells were seeded into a white 96-well plate, 80 µL of cell suspension per well, containing 6000 MV-4-11 cells. The cell plate was placed in the CO2 incubator for overnight culture. Then, 20 µL of NMT1 inhibitor solutions at different concentrations were added to the wells. The 96-well plate was placed back into the incubator for three days. Another cell plate was prepared, and the signal was read on the day of drug addition to serve as the maximum value (Max value in the equation below) for data analysis. To this cell plate, 25 µL of cell viability chemiluminescence detection reagent was added per well, followed by incubation at room temperature for 10 minutes to stabilize the luminescence signal. A multi-label analyzer was used for reading.
The raw data were converted into inhibition rates using the equation (Sample - Min) / (Max - Min) * 100%. The IC50 values were then determined by fitting a four-parameter curve (using the "log(inhibitor) vs. response - Variable slope" model in GraphPad Prism). Min: wells treated with 0.5% DMSO; Max: Day 0 wells. Table 1 provides the inhibitory activity of the compounds of the invention on MV-4-11 cell proliferation. Table 1: Compound Inhibitory Activity against NMT1 Enzyme (IC50) and Anti-proliferative Activity against MV-4-11 Cell line (IC50)

NMT1 enzyme = target: T1, NMT1 enzyme (Homo sapiens, UniProt P30419); test: Inhibitory activity on NMT1 enzyme catalysis (fluorescence intensity assay); assay type: biochemical
T1 sequence (P30419 1-496): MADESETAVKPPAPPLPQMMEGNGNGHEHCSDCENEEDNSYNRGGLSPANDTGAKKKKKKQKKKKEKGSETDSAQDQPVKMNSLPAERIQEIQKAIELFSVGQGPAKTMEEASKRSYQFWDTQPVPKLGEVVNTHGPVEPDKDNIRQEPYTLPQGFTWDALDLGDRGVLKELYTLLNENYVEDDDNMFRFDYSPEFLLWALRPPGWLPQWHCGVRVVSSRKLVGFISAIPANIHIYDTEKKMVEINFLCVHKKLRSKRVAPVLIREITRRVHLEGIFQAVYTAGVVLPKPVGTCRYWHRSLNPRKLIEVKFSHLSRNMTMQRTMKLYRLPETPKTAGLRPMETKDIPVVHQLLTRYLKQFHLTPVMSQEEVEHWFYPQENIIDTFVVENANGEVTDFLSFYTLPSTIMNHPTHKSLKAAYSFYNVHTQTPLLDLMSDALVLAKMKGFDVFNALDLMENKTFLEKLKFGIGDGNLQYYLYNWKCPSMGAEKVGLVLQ
Procedure: This study evaluated the ability of the compounds of the invention to inhibit NMT1 catalytic activity in vitro. […] The final concentration of the NMT1 enzyme was 6 nM, the final concentration of CPM (Reactive thiol fluorescence probe, Invitrogen, D346) was 1 µM, the final concentration of HSPP60 SRC was 20 µM, and the final concentration of DMSO was 0.5%.
Compounds were dissolved in DMSO to obtain 10 mM stock solutions. Dose-response solutions were prepared with a top endpoint compound concentration of 3 mM, followed by three-fold serial dilutions in DMSO, totaling ten data points. […] Then, 2.5 µL of the NMT1 enzyme working solution was added to the 384-well assay plate, followed by incubation at 25 °C for 10 minutes. Subsequently, 5 µL of the CPM and myristoyl-CoA working solution was added, the plate was centrifuged at 1000 rpm for 1 minute, and then 2.5 µL of the HSPP60 SRC working solution was added to initiate the reaction. The reaction was incubated at 25 °C for 45 minutes.
The IC50 curve of the compounds was fitted using the software XLfit 5.5.0 according to the nonlinear regression equation.

[1] = 6 nM NMT1 enzyme, 1.25 µM myristoyl-CoA, 20 µM HSPP60 SRC peptide, 45 minutes at 25 °C, read-out: NMT1 (IC50)

IC50 (MV-4-11 cells; MV4-11, 72 h) [nM] | IC50 (NMT1 enzyme; [1]) [nM] | SMILES | IC50 (MV-4-11 cells; Homo sapiens, MV4-11, 72 h) [nM] | IC50 (NMT1 enzyme) [nM] | IC50 (MV-4-11 cells) [nM]
10.1 | 2.39 | CCc1nn(C)c(C)c1NS(=O)(=O)c1ccc(-c2ccc3sc4c(c3c2)CNCC4)cc1 [Compound B10] | – | – | –
– | – | Cc1c(NS(=O)(=O)c2c(Cl)cc(-c3ccc4c(c3)N3CCNC[C@@H]3CO4)cc2Cl)c(CC(C)C)nn1C [Compound 60] | 152 | 7.95 | –
6.05 | 2.51 | Cc1c(NS(=O)(=O)c2ccc(-c3ccc4sc5c(c4c3)CNCC5)cc2)c(CCF)nn1C [Compound B51] | – | – | –
7.36 | 2.97 | CCc1nn(C)c(C)c1NS(=O)(=O)c1c(Cl)cc(N2CCc3sc4c(c3C2)CNCC4)cc1Cl [Compound 64] | – | – | –
27 | 5.21 | Cc1c(NS(=O)(=O)c2ccc(-c3ccc4oc5c(c4c3)CNCC5)cc2Cl)c(CC(F)F)nn1C [Compound B61] | – | – | –
14.4 | 2.67 | Cc1nn(C)c(C)c1NS(=O)(=O)c1ccc(-c2ccc3sc4c(c3c2)CNCC4)cc1Cl [Compound B1] | – | – | –
26.2 | 3.97 | CCc1nn(C)c(C)c1NS(=O)(=O)c1c(Cl)cc(-c2ccc3sc4c(c3c2)CCNC4)cc1Cl [Compound 55] | – | – | –
17.9 | 3.95 | Cc1c(NS(=O)(=O)c2ccc(-c3ccc4oc5c(c4c3)CNCC5)cc2Cl)c(CCF)nn1C [Compound B50] | – | – | –
36.7 | 4.2 | Cc1c(NS(=O)(=O)c2c(Cl)cc(-c3ccn4nc5c(c4c3)CNCC5)cc2Cl)c(CC(C)C)nn1C [Compound 48] | – | – | –
26.2 | 2.75 | Cc1c(NS(=O)(=O)c2c(Cl)cc(N3CCc4oc5c(c4C3)CNCC5)cc2Cl)c(CC(F)(F)F)nn1C [Compound B36] | – | – | –
58.5 | 4.67 | Cc1c(NS(=O)(=O)c2c(Cl)cc(-c3ccc4sc5c(c4c3)CNCC5)cc2Cl)c(CF)nn1C [Compound 16] | – | – | –
19.5 | 2.37 | Cc1c(NS(=O)(=O)c2ccc(-c3ccc4sc5c(c4c3)CCNC5)cc2Cl)c(CCF)nn1C [Compound B49] | – | – | –
– | – | COCc1nn(C)c(C)c1NS(=O)(=O)c1c(Cl)cc(-c2ccc3sc4c(c3c2)CNCC4)cc1Cl [Compound 15] | 78.6 | 4.73 | –
21.9 | 3.79 | Cc1nn(C)c(C)c1NS(=O)(=O)c1c(Cl)cc(-c2ccn3nc4c(c3c2)CNCC4)cc1Cl [Compound 50] | – | – | –
21.9 | 3.75 | Cc1c(NS(=O)(=O)c2c(Cl)cc(N3CCn4nc5c(c4C3)CNCC5)cc2Cl)c(CC(C)C)nn1C [Compound 69] | – | – | –
5.45 | 1.79 | Cc1c(NS(=O)(=O)c2c(Cl)cc(-c3ccc4sc5c(c4c3)CNCC5)cc2Cl)c(CC(F)F)nn1C [Compound B54] | – | – | –
9.82 | 2.93 | CCc1nn(C)c(C)c1NS(=O)(=O)c1ccc(-c2ccc3sc4c(c3c2)CNCC4)cc1Cl [Compound B7] | – | – | –
21.9 | 3.1 | Cc1nn(C)c(C)c1NS(=O)(=O)c1ccc(-c2ccc3oc4c(c3c2)CNCC4)cc1Cl [Compound B3] | – | – | –
32.4 | 3.84 | Cc1c(NS(=O)(=O)c2ccc(-c3ccc4oc5c(c4c3)CNCC5)cc2)c(CC(C)C)nn1C [Compound B16] | – | – | –
34.9 | 3.56 | Cc1c(NS(=O)(=O)c2ccc(-c3ccc4sc5c(c4c3)CCNC5)cc2Cl)c(CC#N)nn1C [Compound B20] | – | – | –
16.6 | 2.21 | Cc1c(NS(=O)(=O)c2ccc(-c3ccc4sc5c(c4c3)CNCC5)cc2Cl)c(CC(F)(F)F)nn1C [Compound B37] | – | – | –
29.7 | 4.21 | Cc1nn(C)c(C)c1NS(=O)(=O)c1c(Cl)cc(-c2ccc3sc4c(c3c2)CCNC4)cc1Cl [Compound 56] | – | – | –

IC50 (MV-4-11 cells; MV4-11, 72 h) [nM] | IC50 (NMT1 enzyme; [1]) [nM] | SMILES | IC50 (MV-4-11 cells; Homo sapiens, MV4-11, 72 h) [nM] | IC50 (NMT1 enzyme) [nM] | IC50 (MV-4-11 cells) [nM]
20.4 | 3.67 | Cc1c(NS(=O)(=O)c2ccc(-c3ccc4sc5c(c4c3)CCNC5)cc2)c(CC(F)F)nn1C [Compound B63] | – | – | –
145 | 7.89 | Cc1c(NS(=O)(=O)c2c(Cl)cc(-c3ccc4sc5c(c4c3)CNCC5)cc2Cl)c(CO)nn1C [Compound 14] | – | – | –
9.68 | 2.08 | Cc1c(NS(=O)(=O)c2ccc(-c3ccc4sc5c(c4c3)CNCC5)cc2Cl)c(CC2CC2)nn1C [Compound B27] | – | – | –
25.8 | 3.64 | Cc1c(NS(=O)(=O)c2c(Cl)cc(-c3ccc4sc5c(c4c3)CNCC5)cc2Cl)c(C2CC2)nn1C [Compound 4] | – | – | –
25.9 | 3.79 | Cc1nn(C)c(C)c1NS(=O)(=O)c1c(Cl)cc(N2CCn3nc4c(c3C2)CNCC4)cc1Cl [Compound 71] | – | – | –
21.1 | 3.72 | Cc1c(NS(=O)(=O)c2c(Cl)cc(-c3ccc4sc5c(c4c3)CCNC5)cc2Cl)c(CC(F)F)nn1C [Compound B55] | – | – | –
23.3 | 3.76 | Cc1nn(C)c(C)c1NS(=O)(=O)c1ccc(-c2ccc3oc4c(c3c2)CNCC4)cc1 [Compound B6] | – | – | –
61.8 | 5.03 | Cc1c(NS(=O)(=O)c2c(Cl)cc(-c3ccc4oc5c(c4c3)CNCC5)cc2Cl)c(CC(F)(F)F)nn1C [Compound B34] | – | – | –
7.48 | 2.47 | Cc1c(NS(=O)(=O)c2ccc(-c3ccc4sc5c(c4c3)CNCC5)cc2)c(CC(F)F)nn1C [Compound B62] | – | – | –
12.3 | 2.59 | Cc1c(NS(=O)(=O)c2ccc(-c3ccc4sc5c(c4c3)CNCC5)cc2)c(CC2CC2)nn1C [Compound B30] | – | – | –
23.1 | 4.17 | Cc1nn(C)c(C)c1NS(=O)(=O)c1c(Cl)cc(-c2ccc3oc4c(c3c2)CNCC4)cc1Cl [Compound 47] | – | – | –
13.5 | 2.52 | CCc1nn(C)c(C)c1NS(=O)(=O)c1ccc(-c2ccc3oc4c(c3c2)CNCC4)cc1Cl [Compound B9] | – | – | –
– | – | Cc1c(NS(=O)(=O)c2c(Cl)cc(-c3ccc4c(c3)N3CCNC[C@H]3CO4)cc2Cl)c(CC(C)C)nn1C [Compound 57] | 144 | 8.76 | –
25.9 | 3.06 | Cc1c(NS(=O)(=O)c2ccc(-c3ccc4oc5c(c4c3)CNCC5)cc2Cl)c(CC(C)C)nn1C [Compound B14] | – | – | –
11.8 | 2.95 | Cc1c(NS(=O)(=O)c2c(Cl)cc(N3CCc4sc5c(c4C3)CNCC5)cc2Cl)c(CC(F)F)nn1C [Compound B57] | – | – | –
16.8 | 3.64 | CCc1nn(C)c(C)c1NS(=O)(=O)c1c(Cl)cc(-c2ccn3nc4c(c3c2)CNCC4)cc1Cl [Compound 49] | – | – | –
21.1 | 3.51 | Cc1nn(C)c(C)c1NS(=O)(=O)c1c(Cl)cc(N2CCc3sc4c(c3C2)CNCC4)cc1Cl [Compound 65] | – | – | –
15.8 | 2.94 | Cc1nn(C)c(C)c1NS(=O)(=O)c1ccc(-c2ccc3sc4c(c3c2)CNCC4)cc1 [Compound B4] | – | – | –
9.27 | 2.08 | Cc1c(NS(=O)(=O)c2c(Cl)cc(-c3ccc4sc5c(c4c3)CCNC5)cc2Cl)c(CCF)nn1C [Compound B44] | – | – | –
– | – | Cc1c(NS(=O)(=O)c2c(Cl)cc(-c3ccnc(N4CCNCC4)c3)cc2Cl)c(CC(C)C)nn1C [PCLX-001, reference compound] | 75.3 | – | 74.3
62.8 | – | Cc1c(NS(=O)(=O)c2ccc(-c3ccc4sc5c(c4c3)CCNC5)cc2Cl)c(CC(F)F)nn1C [Compound B60] | – | – | –
